Results reported in US9422263B2, “Fluoro-substituted 3,5-dicyano-4-(1H-indazol-5-yl)-2,6-dimethyl-1,4-dihydropyridine derivatives and methods of use thereof” (BAYER PHARMA AKTIENGESELLSCHAFT, priority 2009, dated 2016).

How the values were obtained:
[1] = molecular target: Recombinant human c-Met protein (Homo sapiens (Human), UniProt P08581); assay: c-Met receptor tyrosine kinase activity assay (NADH read-out); assay type: biochemical; settings: ATP 30 μM, c-Met 30 nM
Procedure: c-Met Receptor Tyrosine Kinase Activity Assay (NADH Read-Out):
Recombinant human c-Met protein (Invitrogen, Carlsbad, Calif., USA) is used. As substrate for the kinase reaction the peptide KKKSPGEYVNIEFG (JPT, Germany) is used. For the assay, 1 μL of a 51-fold concentrated solution of the test compound in DMSO is pipetted into a white 384-well microtiter plate (Greiner Bio-One, Frickenhausen, Germany). 25 μL of a solution of c-Met (final concentration 30 nM) and pyruvate kinase/lactate dehydrogenase (Roche Diagnostics, Mannheim, Germany; final concentration 8 mg/L) in assay buffer [3-(N-morpholino)propanesulfonic acid (MOPS), 50 mM, pH 7; MgCl2, 10 mM; bovine serum albumin (BSA), 0.01%; Triton X 100, 0.01%; DTT, 2 mM] are added, and the mixture is incubated for 5 min at room temperature. Then, the kinase reaction is started by the addition of 25 μL of a solution of adenosine triphosphate (ATP, final concentration 30 μM), substrate (final concentration 100 μM), nicotinamide adenine dinucleo-tide (NADH, final concentration 50 μM) and dithiothreitol (DTT, final concentration 2 mM) in assay buffer, and the resulting mixture is incubated for a reaction time of 100 min at 32° C.
Subsequently, the amount of phosphorylated substrate is evaluated by measurement of the decrease of NADH fluorescence. Therefore, the fluorescence emissions at 465 nm after excitation at 340 nm is measured in a fluorescence reader, e.g. Tecan Ultra (Tecan, Männedorf, Switzerland). The data are normalised (enzyme reaction without inhibitor=0% inhibition; all other assay components but no enzyme=100% inhibition).

[2] = molecular target: recombinant kinase domain of the human c-Met (amino acids 960-1390) (Homo sapiens (Human), UniProt P08581); assay: c-Met receptor tyrosine kinase homogeneous time-resolved fluorescence assay (alternative format); assay type: biochemical; settings: HTRF format; ATP 10 μM
Chain of recombinant kinase domain of the human c-Met (amino acids 960-1390) (P08581 960-1390): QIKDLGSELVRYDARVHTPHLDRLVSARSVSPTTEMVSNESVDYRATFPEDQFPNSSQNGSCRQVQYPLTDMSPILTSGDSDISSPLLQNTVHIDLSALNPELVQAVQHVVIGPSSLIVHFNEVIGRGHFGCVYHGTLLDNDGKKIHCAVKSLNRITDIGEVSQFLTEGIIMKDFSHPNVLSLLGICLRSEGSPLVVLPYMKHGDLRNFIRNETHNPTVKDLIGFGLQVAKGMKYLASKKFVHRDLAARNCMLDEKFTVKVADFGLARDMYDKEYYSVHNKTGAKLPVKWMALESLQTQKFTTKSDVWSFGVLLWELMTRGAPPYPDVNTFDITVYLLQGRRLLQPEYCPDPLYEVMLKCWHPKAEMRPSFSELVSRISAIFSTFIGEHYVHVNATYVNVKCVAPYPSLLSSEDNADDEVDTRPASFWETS
Description: c-Met Receptor Tyrosine Kinase Homogeneous Time-Resolved Fluorescence Assay (Alternative Format):
The N-terminally His6-tagged recombinant kinase domain of the human c-Met (amino acids 960-1390), expressed in insect cells (SF21) and purified by Ni-NTA affinity chromatography and consecutive size exclusion chromatography (Superdex 200), is used. Alternatively, commercially available c-Met (Millipore) can be used. As substrate for the kinase reaction, the biotinylated poly-Glu, Tyr (4:1) copolymer (#61GTOBLC, Cis Biointernational, Marcoule, France) is used.
For the assay, […] of a 100-fold concentrated solution of the test compound in DMSO is pipetted into a black low-volume 384-well microtiter plate (Greiner Bio-One, Frickenhausen, Germany). 2 μL of a solution of c-Met in assay buffer [25 mM Hepes/NaOH, pH 7.5; 5 mM MgCl2; 5 mM MnCl2; 2 mM dithiothreitol; 0.1% (v/v) Tween 20 (Sigma); 0.1% (w/v) bovine serum albumin] are added, and the mixture is incubated for 15 min at 22° C. to allow pre-binding of the test compound to the enzyme before the start of the kinase reaction. Then, the kinase reaction is started by the addition of 3 μL of a solution of adenosine triphosphate (ATP, 16.7 μM; final concentration in the 5 μL assay volume is 10 μM) and substrate (2.27 μg/mL, final concentration in the 5 μL assay volume is 1.36 μg/mL ˜30 nM) in assay buffer, and the resulting mixture is incubated for a reaction time of 30 min at 22° C. The concentration of c-Met in the assay is adjusted depending on the activity of the enzyme lot and is appropriately chosen to have the assay in the linear range; typical enzyme concentrations are in the range of about 0.03 nM (final concentration in the 5 μL assay volume). The reaction is stopped by the addition of 5 μL of a solution of HTRF detection reagents [40 nM streptavidine-X Lent and 2.4 nM PT66-Eu-chelate, an europium-chelate labelled anti-phosphotyrosine antibody (Perkin-Elmer)] in an aqueous EDTA solution [100 mM EDTA, 0.2% (w/v) bovine serum albumin in 50 mM HEPES/NaOH, pH 7.5].
The resulting mixture is incubated for 1 h at 22° C. to allow the binding of the biotinylated phosphorylated peptide to the streptavidine-XLent and the PT66-Eu-chelate. Subsequently, the amount of phosphorylated substrate is evaluated by measurement of the resonance energy transfer from the PT66-Eu-chelate to the streptavidine-XLent. Therefore, the fluorescence emissions at 620 nm and 665 nm after excitation at 350 nm are measured in an HTRF reader, e.g. Rubystar (BMG Lab-technologies, Offenburg, Germany) or Viewlux (Perkin-Elmer). The ratio of the emissions at 665 nm and at […] is taken as the measure for the amount of phosphorylated substrate. The data are normalised (enzyme reaction without inhibitor=0% inhibition; all other assay components but no enzyme=100% inhibition).

[3] = Caco-2 permeability assay; assay type: in vitro ADME; settings: human, apical to basolateral, 2 h at 37° C., Table 3, read-out: Caco-2 permeability PappA-B
Description: Caco-2 Permeability Assay:
The in vitro permeation of a test compound across a Caco-2 cell monolayer is a well-established assay system to predict the permeability from the gastro-intestinal tract [cf. P. Artursson and J. Karlsson: Correlation between oral drug absorption in humans and apparent drug permeability coefficients in human intestinal epithelial (Caco-2) cells, Biochem. Biophys. 175 (3), 880-885 (1991)]. The permeability of the compounds of the present invention in such Caco-2 cells was determined as described below:
Human caco-2 cells (ACC No. 169, DSMZ, German Collection of Microorganisms and Cell Cultures, Braunschweig, Germany) are seeded on 24-well insert plates and are allowed to grow for 14-16 days. For permeability studies, the test compounds are dissolved in DMSO and diluted to the final test concentration of 2 μM with transport buffer [Hanks' Buffered Salt Solution, Gibco/Invitrogen, further supplemented with glucose (final concentration 19.9 mM) and HEPES (final concentration 9.8 mM)]. For determination of the apical to basolateral permeability (PappA-B), the test compound solution is added to the apical side of the cell monolayer and transport buffer to the basolateral side of the monolayer; for determination of the basolateral to apical permeability (PappB-A), the test compound solution is added to the basolateral side of the cell monolayer and transport buffer to the apical side of the monolayer. Samples are taken from the donor compartment at the beginning of the experiment to confirm mass balance. After an incubation of 2 h at 37° C., samples are taken from both compartments. Samples are analyzed by LC-MS/MS, and the apparent permeability coefficients are calculated. Lucifer Yellow permeability is assayed for each cell monolayer to ensure cell monolayer integrity, and the permeability of Atenolol (low permeability marker) and Sulfasalazine (marker for active excretion) is determined for each batch as quality control.

Chain of Recombinant human c-Met protein (P08581 25-1390): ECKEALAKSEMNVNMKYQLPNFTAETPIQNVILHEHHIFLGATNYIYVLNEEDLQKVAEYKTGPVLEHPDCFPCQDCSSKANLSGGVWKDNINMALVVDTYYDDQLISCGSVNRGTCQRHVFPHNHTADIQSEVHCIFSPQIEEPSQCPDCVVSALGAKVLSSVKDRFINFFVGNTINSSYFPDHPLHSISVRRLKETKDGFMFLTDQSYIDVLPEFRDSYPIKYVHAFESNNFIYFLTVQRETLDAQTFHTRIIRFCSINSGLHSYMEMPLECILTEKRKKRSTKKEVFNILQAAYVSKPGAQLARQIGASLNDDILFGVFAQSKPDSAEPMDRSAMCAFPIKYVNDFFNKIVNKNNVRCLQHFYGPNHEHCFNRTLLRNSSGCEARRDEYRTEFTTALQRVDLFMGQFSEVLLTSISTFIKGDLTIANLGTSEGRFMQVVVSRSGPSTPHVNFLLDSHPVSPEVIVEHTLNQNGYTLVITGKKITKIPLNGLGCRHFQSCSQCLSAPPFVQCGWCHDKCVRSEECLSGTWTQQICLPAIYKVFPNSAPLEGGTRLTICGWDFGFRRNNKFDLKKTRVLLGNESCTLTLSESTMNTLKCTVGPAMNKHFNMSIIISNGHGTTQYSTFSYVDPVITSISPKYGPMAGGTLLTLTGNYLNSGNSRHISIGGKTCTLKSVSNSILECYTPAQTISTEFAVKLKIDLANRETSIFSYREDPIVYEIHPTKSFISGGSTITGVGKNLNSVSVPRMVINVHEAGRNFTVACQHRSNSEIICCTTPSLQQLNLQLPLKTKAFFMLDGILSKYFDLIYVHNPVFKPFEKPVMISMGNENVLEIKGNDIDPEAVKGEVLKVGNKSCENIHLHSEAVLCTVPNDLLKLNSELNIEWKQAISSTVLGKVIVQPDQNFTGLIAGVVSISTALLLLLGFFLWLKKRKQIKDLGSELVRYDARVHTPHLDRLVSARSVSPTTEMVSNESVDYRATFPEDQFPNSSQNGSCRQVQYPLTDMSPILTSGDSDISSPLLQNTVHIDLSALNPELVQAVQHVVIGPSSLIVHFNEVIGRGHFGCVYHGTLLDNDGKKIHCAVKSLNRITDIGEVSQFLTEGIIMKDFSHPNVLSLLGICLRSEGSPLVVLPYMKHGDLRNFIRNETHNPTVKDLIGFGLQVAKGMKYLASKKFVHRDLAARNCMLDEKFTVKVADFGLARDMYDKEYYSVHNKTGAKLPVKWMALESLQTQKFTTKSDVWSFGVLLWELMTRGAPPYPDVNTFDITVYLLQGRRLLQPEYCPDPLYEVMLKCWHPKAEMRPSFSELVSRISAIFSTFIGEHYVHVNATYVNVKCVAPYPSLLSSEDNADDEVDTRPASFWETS

IC50 [1] [nM]	IC50 [2] [nM]	Papp at 2 h, 2 μM [3] [×10⁻⁶ cm/s]	SMILES
6	2	16.4	CC1=C(C#N)C(c2ccc3[nH]nc(C)c3c2)C(C#N)=C(C(F)F)N1 (single isomer, unassigned) [Example 3, 2-(Difluoromethyl)-6-methyl-4-(3-methyl-1H-indazol-5-yl)-1,4-dihydropyridine-3,5-dicarbonitrile]
12	1	31.1	CC1=C(C#N)C(c2ccc3[nH]nc(C)c3c2)C(C#N)=C(C(F)(F)F)N1 (single isomer, unassigned) [Example 6]
26	3	27.1	Cc1n[nH]c2cc(F)c(C3C(C#N)=C(C(F)F)NC(C(F)F)=C3C#N)cc12 [Example 14, 2,6-Bis(difluoromethyl)-4-(6-fluoro-3-methyl-1H-indazol-5-yl)-1,4-dihydropyridine-3,5-dicarbonitrile]
